Data from ChEMBL document CHEMBL1201861, “Genomics of Drug Sensitity in Cancer screening data, Wellcome Trust Sanger Institute”.

Columns and labels:
Experiment in all cases: cells
NCI-H2052 = format: functional, cell-based; conditions: Homo sapiens;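 also: growth inhibition of NCI-H2052 cells, read out with a cell viability assay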
Description: SANGER: Inhibition of human NCI-H2052 cell growth in a cell viability assay.

HCC1395 = format: functional, cell-based; conditions: Homo sapiens;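 also: growth inhibition of HCC1395 cells, read out by a cell viability assay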
Description: SANGER: Inhibition of human HCC1395 cell growth in a cell viability assay.

MKN-1 = format: functional, cell-based; conditions: Homo sapiens;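 also: growth inhibition of human MKN1 cells, read out by a cell viability measurement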
Description: SANGER: Inhibition of human MKN1 cell growth in a cell viability assay.

IGROV-1 = format: functional, cell-based; conditions: Homo sapiens;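 also: reduction of IGROV-1 cell growth, read out with a viability assay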
Description: SANGER: Inhibition of human IGROV-1 cell growth in a cell viability assay.

NY = format: functional, cell-based; conditions: Homo sapiens
Description: SANGER: Inhibition of human NY cell growth in a cell viability assay.

MDA-MB-175-VII = format: functional, cell-based; conditions: Homo sapiens
U2OS = format: functional, cell-based, U-2-OS; conditions: Homo sapiens;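 also: growth inhibition of human U-2-OS cells, determined with a cell viability assay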
Description: SANGER: Inhibition of human U-2-OS cell growth in a cell viability assay.

ASPC1 = format: functional, cell-based; conditions: Homo sapiens;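 also: growth inhibition of AsPC-1 cells, read out with a cell viability assay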
Description: SANGER: Inhibition of human AsPC-1 cell growth in a cell viability assay.

BFTC-909 = format: functional, cell-based; conditions: Homo sapiens
Description: SANGER: Inhibition of human BFTC-909 cell growth in a cell viability assay.

NCI-H1651 = format: functional, cell-based; conditions: Homo sapiens;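 also: Read-out is a cell viability assay, with IC50 expressing inhibition of NCI-H1651 cell growth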
Description: SANGER: Inhibition of human NCI-H1651 cell growth in a cell viability assay.

NCI-H650 = format: functional, cell-based; conditions: Homo sapiens;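 also: growth inhibition of NCI-H650 cells, read out by a viability assay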
Description: SANGER: Inhibition of human NCI-H650 cell growth in a cell viability assay.

PANC-03-27 = format: functional, cell-based; conditions: Homo sapiens
Description: SANGER: Inhibition of human PANC-03-27 cell growth in a cell viability assay.

CP50-MEL-B = format: functional, cell-based; conditions: Homo sapiens;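 also: growth inhibition of the human cell line, measured with a cell viability read-out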
Description: SANGER: Inhibition of human CP50-MEL-B cell growth in a cell viability assay.

SW1088 = format: functional, cell-based; conditions: Homo sapiens;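 also: growth inhibition of human SW1088 cells, read out by a cell viability assay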
Description: SANGER: Inhibition of human SW1088 cell growth in a cell viability assay.

NCI-H1793 = format: functional, cell-based; conditions: Homo sapiens;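 also: cell growth inhibition, read out by a cell viability assay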
Description: SANGER: Inhibition of human NCI-H1793 cell growth in a cell viability assay.

AN3-CA = format: functional, cell-based; conditions: Homo sapiens;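 also: growth inhibition of human AN3-CA cells measured by a cell viability assay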
Description: SANGER: Inhibition of human AN3-CA cell growth in a cell viability assay.

CAL-120 = format: functional, cell-based; conditions: Homo sapiens;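 also: cell growth inhibition, read out as cell viability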
Description: SANGER: Inhibition of human CAL-120 cell growth in a cell viability assay.

CAL-62 = format: functional, cell-based; conditions: Homo sapiens;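 also: growth inhibition of CAL-62 cells, read out with a cell viability assay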
Description: SANGER: Inhibition of human CAL-62 cell growth in a cell viability assay.

G-401 = format: functional, cell-based; conditions: Homo sapiens
Description: SANGER: Inhibition of human G-401 cell growth in a cell viability assay.

NCI-H630 = format: functional, cell-based; conditions: Homo sapiens;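 also: growth inhibition of NCI-H630 cells, read out with a cell viability assay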
Description: SANGER: Inhibition of human NCI-H630 cell growth in a cell viability assay.

CAL-54 = format: functional, cell-based; conditions: Homo sapiens;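 also: growth inhibition of CAL-54 cells, read out by a viability measurement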
Description: SANGER: Inhibition of human CAL-54 cell growth in a cell viability assay.

SiHa = format: functional, cell-based; conditions: Homo sapiens;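 also: Viability-based readout of growth inhibition in SiHa cells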
Description: SANGER: Inhibition of human SiHa cell growth in a cell viability assay.

SNU-387 = format: functional, cell-based; conditions: Homo sapiens
Description: SANGER: Inhibition of human SNU-387 cell growth in a cell viability assay.

OVCAR-5 = format: functional, cell-based; conditions: Homo sapiens;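 also: growth inhibition of human OVCAR-5 cells, read out with a cell viability assay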
Description: SANGER: Inhibition of human OVCAR-5 cell growth in a cell viability assay.

HCC1806 = format: functional, cell-based; conditions: Homo sapiens;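 also: growth inhibition of the cancer cell line, determined with a cell viability assay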
Description: SANGER: Inhibition of human HCC1806 cell growth in a cell viability assay.

LB373-MEL-D = format: functional, cell-based, Homo sapiens; conditions: Homo sapiens, LB373-MEL-D;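 also: growth inhibition of the cell line, read out in a cell viability assay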
Description: SANGER: Inhibition of human LB373-MEL-D cell growth in a cell viability assay.

DoTc2-4510 = format: functional, cell-based; conditions: Homo sapiens
ChaGo-K-1 = format: functional, cell-based; conditions: Homo sapiens;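 also: growth inhibition of ChaGo-K-1 cells, read out with a cell viability assay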
Description: SANGER: Inhibition of human ChaGo-K-1 cell growth in a cell viability assay.

SW1463 = format: functional, cell-based; conditions: Homo sapiens;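 also: growth inhibition of SW1463 cells, determined with a cell viability assay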
Description: SANGER: Inhibition of human SW1463 cell growth in a cell viability assay.

NCI-H810 = format: functional, cell-based; conditions: Homo sapiens;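 also: IC50 reflects inhibition of cancer cell line growth, read out with a cell viability assay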
Description: SANGER: Inhibition of human NCI-H810 cell growth in a cell viability assay.

S-117 = format: functional, cell-based; conditions: Homo sapiens
Description: SANGER: Inhibition of human S-117 cell growth in a cell viability assay.

D-542MG = format: functional, cell-based; conditions: Homo sapiens
Description: SANGER: Inhibition of human D-542MG cell growth in a cell viability assay.

RO82-W-1 = format: functional, cell-based; conditions: Homo sapiens;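 also: growth inhibition of human RO82-W-1 cells, measured with a cell viability assay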
Description: SANGER: Inhibition of human RO82-W-1 cell growth in a cell viability assay.

OAW-42 = format: functional, cell-based; conditions: Homo sapiens;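 also: growth inhibition of OAW-42 cells, read out with a cell viability assay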
Description: SANGER: Inhibition of human OAW-42 cell growth in a cell viability assay.

MFH-ino = format: functional, cell-based, Homo sapiens; conditions: Homo sapiens, MFH-ino;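 also: growth inhibition of human MFH-ino cells, read out by a cell viability assay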
Description: SANGER: Inhibition of human MFH-ino cell growth in a cell viability assay.

NCI-H2170 = format: functional, cell-based; conditions: Homo sapiens;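 also: cell viability assay measuring growth inhibition of human NCI-H2170 cancer cells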
Description: SANGER: Inhibition of human NCI-H2170 cell growth in a cell viability assay.

COLO-680N = format: functional, cell-based; conditions: Homo sapiens;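 also: cell viability assay used to measure inhibition of COLO-680N cell growth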
Description: SANGER: Inhibition of human COLO-680N cell growth in a cell viability assay.

NB12 = format: functional, cell-based; conditions: Homo sapiens;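 also: growth inhibition of human NB12 cells, read out by a cell viability assay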
Description: SANGER: Inhibition of human NB12 cell growth in a cell viability assay.

RT-112 = format: functional, cell-based; conditions: Homo sapiens
Description: SANGER: Inhibition of human RT-112 cell growth in a cell viability assay.

HCC1937 = format: functional, cell-based; conditions: Homo sapiens;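 also: growth inhibition measured with a cell viability read-out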
Description: SANGER: Inhibition of human HCC1937 cell growth in a cell viability assay.

MDA-MB-157 = format: functional, cell-based; conditions: Homo sapiens
Description: SANGER: Inhibition of human MDA-MB-157 cell growth in a cell viability assay.

MKN-45 = format: functional, cell-based; conditions: Homo sapiens;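 also: growth inhibition of human MKN-45 cells, measured with a cell viability assay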
Description: SANGER: Inhibition of human MKN45 cell growth in a cell viability assay.

Hs-578T = format: functional, cell-based; conditions: Homo sapiens
Description: SANGER: Inhibition of human Hs-578-T cell growth in a cell viability assay.

M059J = format: functional, cell-based; conditions: Homo sapiens;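 also: growth inhibition of M059J cells, read out with a cell viability assay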
Description: SANGER: Inhibition of human M059J cell growth in a cell viability assay.

NCI-H1993 = format: functional, cell-based; conditions: Homo sapiens;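 also: growth inhibition of the cancer cell line, assessed with a cell viability assay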
Description: SANGER: Inhibition of human NCI-H1993 cell growth in a cell viability assay.

NC(=O)Nc1cc(-c2cccc(F)c2)sc1C(=O)N[C@H]1CCCNC1 [AZD-7762] showed an IC50 (NCI-H2052) of over 2 µM, an IC50 (HCC1395) of 0.271 µM and an IC50 (MKN-1) of 0.35 µM. For the same molecule, the IC50 (IGROV-1) was 0.244 µM, the IC50 (NY) was over 2 µM and the IC50 (MDA-MB-175-VII) was over 2 µM. For the same molecule, the IC50 (U2OS) was 0.158 µM, the IC50 (ASPC1) was 0.664 µM and the IC50 (BFTC-909) was 0.588 µM. For the same molecule, the IC50 (NCI-H1651) was 1.09 µM, the IC50 (NCI-H650) was 1.42 µM and the IC50 (PANC-03-27) was 0.143 µM. The IC50 (CP50-MEL-B) was over 2 µM, the IC50 (SW1088) was 0.916 µM and the IC50 (NCI-H1793) was 1.61 µM. The IC50 (AN3-CA) was 0.837 µM, the IC50 (CAL-120) was over 2 µM and the IC50 (CAL-62) was 0.571 µM. The IC50 (G-401) was over 2 µM, the IC50 (NCI-H630) was 1.79 µM and the IC50 (CAL-54) was 0.74 µM. The IC50 (SiHa) was 0.859 µM, the IC50 (SNU-387) was 0.243 µM and the IC50 (OVCAR-5) was 0.139 µM. The IC50 (HCC1806) was 40.2 nM, the IC50 (LB373-MEL-D) was over 2 µM and the IC50 (DoTc2-4510) was 0.782 µM. It also gave an IC50 (ChaGo-K-1) of 0.325 µM, an IC50 (SW1463) of over 2 µM and an IC50 (NCI-H810) of over 2 µM. The IC50 (S-117) was 1.04 µM, the IC50 (D-542MG) was over 2 µM and the IC50 (RO82-W-1) was over 2 µM. The IC50 (OAW-42) was 0.937 µM, the IC50 (MFH-ino) was over 2 µM and the IC50 (NCI-H2170) was 1.52 µM. It also gave an IC50 (COLO-680N) of over 2 µM, an IC50 (NB12) of over 2 µM and an IC50 (RT-112) of 0.499 µM. For the same molecule, the IC50 (HCC1937) was 0.706 µM, the IC50 (MDA-MB-157) was 0.0866 µM and the IC50 (MKN-45) was 0.28 µM. For the same molecule, the IC50 (Hs-578T) was 0.453 µM, the IC50 (M059J) was 1.07 µM and the IC50 (NCI-H1993) was over 2 µM.
For Cc1ccc(-n2nc(C(C)(C)C)cc2NC(=O)Nc2ccc(OCCN3CCOCC3)c3ccccc23)cc1 [DORAMAPIMOD], the IC50 (NCI-H2052) was over 10 µM, the IC50 (HCC1395) was over 10 µM and the IC50 (MKN-1) was over 10 µM. The IC50 (IGROV-1) was over 10 µM, the IC50 (NY) was over 10 µM and the IC50 (MDA-MB-175-VII) was over 10 µM. The IC50 (U2OS) was over 10 µM, the IC50 (ASPC1) was over 10 µM and the IC50 (BFTC-909) was over 10 µM. The IC50 (NCI-H1651) was over 10 µM, the IC50 (NCI-H650) was over 10 µM and the IC50 (PANC-03-27) was over 10 µM. For the same molecule, the IC50 (CP50-MEL-B) was over 10 µM, the IC50 (SW1088) was over 10 µM and the IC50 (NCI-H1793) was over 10 µM. It also gave an IC50 (AN3-CA) of over 10 µM, an IC50 (CAL-120) of over 10 µM and an IC50 (CAL-62) of over 10 µM. For the same molecule, the IC50 (G-401) was over 10 µM, the IC50 (NCI-H630) was over 10 µM and the IC50 (CAL-54) was over 10 µM. For the same molecule, the IC50 (SiHa) was over 10 µM, the IC50 (SNU-387) was over 10 µM and the IC50 (OVCAR-5) was over 10 µM. For the same molecule, the IC50 (HCC1806) was over 10000 nM, the IC50 (LB373-MEL-D) was over 10 µM and the IC50 (DoTc2-4510) was over 10 µM. For the same molecule, the IC50 (ChaGo-K-1) was over 10 µM, the IC50 (SW1463) was over 10 µM and the IC50 (NCI-H810) was over 10 µM. For the same molecule, the IC50 (S-117) was over 10 µM, the IC50 (D-542MG) was over 10 µM and the IC50 (RO82-W-1) was over 10 µM. The IC50 (OAW-42) was over 10 µM, the IC50 (MFH-ino) was over 10 µM and the IC50 (NCI-H2170) was over 10 µM. It also gave an IC50 (COLO-680N) of over 10 µM, an IC50 (NB12) of over 10 µM and an IC50 (RT-112) of over 10 µM. It also gave an IC50 (HCC1937) of over 10 µM, an IC50 (MDA-MB-157) of over 10 µM and an IC50 (MKN-45) of over 10 µM. The IC50 (Hs-578T) was over 10 µM, the IC50 (M059J) was over 10 µM and the IC50 (NCI-H1993) was over 10 µM.
Work on CC1=C(/C=C/C(C)=C/C=C/C(C)=C/C(=O)O)C(C)(C)CCC1 [TRETINOIN] yielded an IC50 (NCI-H2052) of over 10 µM, an IC50 (HCC1395) of over 10 µM and an IC50 (MKN-1) of over 10 µM. It also gave an IC50 (IGROV-1) of over 10 µM, an IC50 (NY) of over 10 µM and an IC50 (MDA-MB-175-VII) of over 10 µM. For the same molecule, the IC50 (U2OS) was over 10 µM, the IC50 (ASPC1) was over 10 µM and the IC50 (BFTC-909) was over 10 µM. It also gave an IC50 (NCI-H1651) of over 10 µM, an IC50 (NCI-H650) of over 10 µM and an IC50 (PANC-03-27) of over 10 µM. For the same molecule, the IC50 (CP50-MEL-B) was over 10 µM, the IC50 (SW1088) was over 10 µM and the IC50 (NCI-H1793) was over 10 µM. It also gave an IC50 (AN3-CA) of over 10 µM, an IC50 (CAL-120) of over 10 µM and an IC50 (CAL-62) of over 10 µM. It also gave an IC50 (G-401) of over 10 µM, an IC50 (NCI-H630) of over 10 µM and an IC50 (CAL-54) of over 10 µM. For the same molecule, the IC50 (SiHa) was over 10 µM, the IC50 (SNU-387) was over 10 µM and the IC50 (OVCAR-5) was over 10 µM. The IC50 (HCC1806) was 729 nM, the IC50 (LB373-MEL-D) was over 10 µM and the IC50 (DoTc2-4510) was over 10 µM. It also gave an IC50 (ChaGo-K-1) of over 10 µM, an IC50 (SW1463) of over 10 µM and an IC50 (NCI-H810) of over 10 µM. The IC50 (S-117) was over 10 µM, the IC50 (D-542MG) was over 10 µM and the IC50 (RO82-W-1) was over 10 µM. It also gave an IC50 (OAW-42) of over 10 µM, an IC50 (MFH-ino) of over 10 µM and an IC50 (NCI-H2170) of over 10 µM. For the same molecule, the IC50 (COLO-680N) was over 10 µM, the IC50 (NB12) was over 10 µM and the IC50 (RT-112) was over 10 µM. It also gave an IC50 (HCC1937) of over 10 µM, an IC50 (MDA-MB-157) of over 10 µM and an IC50 (MKN-45) of over 10 µM. The IC50 (Hs-578T) was over 10 µM, the IC50 (M059J) was over 10 µM and the IC50 (NCI-H1993) was over 10 µM.
